Results: patent US20240062782A1, “NONLINEAR LIGHT ABSORPTION MATERIAL, RECORDING MEDIUM, METHOD FOR RECORDING INFORMATION, AND METHOD FOR READING INFORMATION” (Panasonic Intellectual Property Management Co., Ltd., priority 2021, published 2024)
Like-named read-outs stand apart in the source and are kept apart here.

What was measured:
Format in all cases: physicochemical
[1] = Solubility in chloroform; conditions: chloroform as solvent
From the text: Unsubstituted truxene is a hydrocarbon compound that is nonpolar and has a high planarity. Unsubstituted truxene corresponds to the compound of the above formula (1) in which R^1 to R^6 are hydrogen atoms. In the present specification, the unsubstituted truxene may be simply called truxene. In truxene, […] stacking of the molecules is likely to occur, and the solubility in a solvent or resin monomer tends to be low. For example, when chloroform is used as the solvent, the solubility of truxene is about several mmol/L. When the concentration of truxene in a material is high, truxene molecules come close to each other and are assembled in various forms. Consequently, multiple new levels are formed at positions with energies lower than the lowest one-photon-allowed state of truxene itself. Accordingly, tailing of a peak derived from one-photon absorption can be verified by measuring the one-photon absorption spectrum of the material including truxene at a high concentration. In contrast, in the compound A represented by the formula (1) in which R^1 to R^6 are hydrocarbon groups, it tends to suppress the formation of assembly of compound molecules without substantially changing the size of the π C electron conjugated system of truxene. […]

[2] = Measurement of molar absorption coefficient at 405 nm (JIS K0115:2004); conditions: wavelength 405 nm; compound concentration 100 to 500 mmol/L in solvent
From the text: The molar absorption coefficient of the compound A for light having a wavelength of 405 nm may be 100 mol^−1·L·cm^−1 or less, 10 mol^−1·L·cm^−1 or less, 1 mol^−1·L·cm^−1 or less, or 0.1 mol^−1·L·cm^−1 or less. The lower limit of the molar absorption coefficient of the compound A is not particularly limited and is, for example, 0.00001 mol^−1·L·cm^−1. The molar absorption coefficient can be measured by, for example, a method in accordance with the provision of Japanese Industrial Standards (JIS) K0115:2004. The measurement of molar absorption coefficient uses a light source that irradiates light with a photon density to hardly cause two-photon absorption by the compound A. Furthermore, in the measurement of molar absorption coefficient, the concentration of the compound A is adjusted to 100 mmol/L or more and 500 mmol/L or less. This concentration is very high compared to the concentration in a measurement test of the molar absorption coefficient of a light absorption peak. The molar absorption coefficient can be used as an index of one-photon absorption.
The compounds of Examples and Comparative Examples were measured for the molar absorption coefficient by a method in accordance with the provision of JIS K0115:2004. Specifically, first, as a measurement sample, a solution in which a compound was dissolved in a solvent was prepared. The concentration of the compound in the solution was appropriately adjusted within a range of 100 mmol/L or more and 500 mmol/L or less according to the absorbance at a wavelength of 405 nm of the compound as the target for measurement. Then, the absorption spectrum of the measurement sample was measured. The absorbance at a wavelength of 405 nm was read from the obtained spectrum. The molar absorption coefficient was calculated based on the concentration of the compound in the measurement sample and the optical path length of the cell used for the measurement. As described above, the molar absorption coefficients of the compounds of Examples 1 and 2 and the compounds of Comparative Examples 1 and 4 to 6 were measured.

[3] = Measurement of two-photon absorption cross-section by the Z-scan method, light of 405 nm; conditions: light of wavelength 405 nm; for Two-photon absorption cross-section σ: titanium sapphire pulsed laser second harmonic, 80 fs, 1 kHz
From the text: The two-photon absorption cross-section of the compound A for light having a wavelength of 405 nm may be higher than 1 GM or 10 GM or more. The upper limit of the two-photon absorption cross-section of the compound A is not particularly limited and is, for example, 1000 GM. The two-photon absorption cross-section can be measured by, for example, the Z-scan method described in J. Opt. Soc. Am. B, 2003, Vol. 20, p. 529. The Z-scan method is broadly used as a method for measuring a nonlinear optical constant. In the Z-scan method, a measurement sample is moved along the irradiation direction of a laser beam near the focal point where the beam is focused. On this occasion, the change in the amount of light permeated through the measurement sample is recorded. In the Z-scan method, the power density of incident light changes depending on the position of the measurement sample. Accordingly, when the measurement sample performs nonlinear light absorption, if the measurement sample is located near the focal point of the laser beam, the amount of the transmitted light is attenuated. The two-photon absorption cross-section can be calculated by fitting the change of the amount of transmitted light to a theoretical curve predicted by the intensity of incident light, the thickness of the measurement sample, the concentration of the compound A in the measurement sample, and so on.
The compounds of Examples and Comparative Examples were measured for the two-photon absorption cross-section for light having a wavelength of 405 nm. The measurement of the two-photon absorption cross-section was performed using the Z-scan method described in J. Opt. Soc. Am. B, 2003, Vol. 20, p. 529. As the light source for measuring the two-photon absorption cross-section, a titanium sapphire pulsed laser was used. Specifically, each sample was irradiated with the second harmonic of the titanium sapphire pulsed laser. The pulse width of the laser was 80 fs. The repetition frequency of the laser was 1 kHz. The average power of the laser was changed within a range of 0.01 mW or more and 0.08 mW or less. The light from the laser was light having a wavelength of 405 nm. […] As described above, the two-photon absorption cross-sections of the compounds of Examples 1 and 2 and the compounds of Comparative Examples 1 and 4 to 6 were measured.

[4] = Measurement of fluorescence internal quantum yield (absolute PL quantum yield measuring apparatus); conditions: for Fluorescence quantum yield Φf: in chloroform or tetrahydrofuran, excitation at one-photon absorption peak, measured 350-650 nm; for Fluorescence property: stated in words
From the text: The compound A also tends to emit fluorescent light. The wavelength of fluorescent light emitted by the compound A may be 405 nm or more and 660 nm or less and, in some cases, may be 300 nm or more and 650 nm or less. The quantum yield Φf of fluorescence in the compound A may be 0.05 or more, 0.1 or more, or 0.5 or more. The upper limit of the quantum yield Φf of fluorescence of the compound A is not particularly limited and is, for example, 0.99. In the present specification, the “quantum yield” specifically means internal quantum yield. The quantum yield of fluorescence can be measured by, for example, a commercially available absolute PL quantum yield measuring apparatus.
The compounds of Examples and Comparative Examples were measured for fluorescence internal quantum yield. The measurement sample was prepared by dissolving a compound in a chloroform (CLF) solvent or a tetrahydrofuran (THF) solvent. In the measurement, an absolute PL quantum yield measuring apparatus (C9920-02, manufactured by Hamamatsu Photonics K.K.) was used. The excitation wavelength was set to the peak wavelength of the one-photon absorption of the compound. The measurement wavelength was appropriately adjusted within a range of 350 nm or more and 650 nm or less so as not to overlap with the absorption wavelength band of the compound. As a reference, the solvent used for dissolving the compound was used. As described above, the fluorescence quantum yields of the compounds of Examples 1 and 2 and the compounds of Comparative Examples 1 and 4 to 6 were measured.

[5] = Solubility in the solvent when preparing samples for optical characteristics; conditions: measurement solvent; sample could not be prepared
Description: (§1) The compounds of Examples and Comparative Examples were measured for optical characteristics by the following methods. […] Measurement of two-photon absorption cross-section

[6] = Stability for light having a wavelength in a short wavelength region; conditions: short wavelength region (390-420 nm); optical characteristics could not be measured
Description: as §1

Molar absorption coefficient ε [2] [L/mol/cm]	Fluorescence quantum yield Φf [4]	Two-photon absorption cross-section σ [3] [GM]	SMILES	further results
24	0.1		c1ccc2c(c1)Cc1c-2c2c(c3c1-c1ccccc1C3)-c1ccccc1C2 [Comparative Example 1, 10,15-dihydro-5H-diindeno[1,2-a:1′,2′-c]fluorene]	solubility [1]: about several; Ratio σ/ε ([3]; σ in GM over ε in mol^−1·L·cm^−1): 8
			O=c1c2ccccc2c2c1c1c3ccccc3c(=O)c1c1c3ccccc3c(=O)c21 [Comparative Example 2, 5H-diindeno[1,2-a:1′,2′-c]fluorene-5,10,15-trione]	Solubility in the solvent (sample for measuring optical characteristics) [5]: low solubility
			c1ccc2c(c1)[nH]c1c2c2[nH]c3ccccc3c2c2[nH]c3ccccc3c12 [Comparative Example 3, 10,15-dihydro-5H-5,10,15-triaza-diindeno[1,2-a:1′,2′-c]fluorene]	Stability for light having a wavelength in a short wavelength region [6]: low stability
2730		23000	C(#Cc1c(C#Cc2ccccc2)c(C#Cc2ccccc2)c(C#Cc2ccccc2)c(C#Cc2ccccc2)c1C#Cc1ccccc1)c1ccccc1 [Comparative Example 4, Hexakis(phenylethynyl)benzene]	
35	0	570	COc1cc(-c2ccc(-c3ccc(C(=O)c4ccc(OCCOCCOC(C)=O)c(OCCOCCOC(C)=O)c4)cc3)c(OC)c2)ccc1-c1ccc(C(=O)c2ccc(OCCOCCOC(C)=O)c(OCCOCCOC(C)=O)c2)cc1 [Comparative Example 5]	
70	0.3	380	OC(C#Cc1ccc(N(c2ccc(C#CC(O)(c3ccccc3)c3ccccc3)cc2)c2ccc(C#CC(O)(c3ccccc3)c3ccccc3)cc2)cc1)(c1ccccc1)c1ccccc1 [Comparative Example 6]	
0.04	0.1	40	CC1(C)c2ccccc2-c2c1c1c(c3c2C(C)(C)c2ccccc2-3)C(C)(C)c2ccccc2-1 [Example 1, 10,15-dihydro-5,5,10,10,15,15-hexamethyl-5H-diindeno[1,2-a:1′,2′-c]fluorene]	solubility ([1]; organic solvent or mixture, read-out: Solubility): ≥ 100 mM; Fluorescence property [4]: had a fluorescence property
0.08	0.1	43	CCC1(CC)c2ccccc2-c2c1c1c(c3c2C(CC)(CC)c2ccccc2-3)C(CC)(CC)c2ccccc2-1 [Example 2, 10,15-dihydro-5,5,10,10,15,15-hexaethyl-5H-diindeno[1,2-a:1′,2′-c]fluorene]	Fluorescence property [4]: had a fluorescence property
